pIC50: −log10 of the molar value. Like-named read-outs stand apart in the source and are kept apart here.
Molecular target: recombinant eIF4E (Homo sapiens (Human), UniProt P06730)
Test: Fluorescence polarization competition assay for eIF4E binding potency
How it was run: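 FP readout; IC50 fit from 8-point, 3-fold series. 75 nM eIF4E + 20 nM ATTO-550-labelled m7GDP probe, Tris pH 7.5/NaCl/DTT/Tween buffer, 1% DMSO final. 30 min RT equilibration, light-protected.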

[1] = fluorescence polarization competition, 75 nM recombinant eIF4E, 20 nM EDA-m7GDP-ATTO-550, IC50 class, read-out: elF4E FP
[2] = inhibition of eIF4E/EDA-m7GDP-ATTO-550 binding by 50%, Table 4B calculated values, read-out: IC50

Chain of recombinant eIF4E (P06730 whole entry): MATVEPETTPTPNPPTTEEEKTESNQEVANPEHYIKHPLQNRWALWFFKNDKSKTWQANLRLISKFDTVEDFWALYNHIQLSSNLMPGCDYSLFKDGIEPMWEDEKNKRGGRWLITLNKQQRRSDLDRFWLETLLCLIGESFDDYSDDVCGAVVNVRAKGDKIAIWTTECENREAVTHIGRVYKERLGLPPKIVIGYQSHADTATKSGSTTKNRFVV

Structure (SMILES): Cc1nc2cc(OC(F)F)c(Cl)c(C#N)c2c(=O)n1CCOc1ccc(Cl)cc1-c1ccnc2c(C(=O)O)csc12 [compound 537]
- pIC50 [1]: > 7.30
- pIC50 [2]: 7.33

Structure (SMILES): Cc1nc2cc(OC(F)F)c(C#N)c(C#N)c2c(=O)n1CCOc1ccc(Cl)cc1-c1ccnc2c(C(=O)O)csc12 [compound 538]
- pIC50 [1]: > 7.30
- pIC50 [2]: 7.65

Structure (SMILES): Cc1nc2cc(OC(F)F)c(C(F)F)c(C#N)c2c(=O)n1CCOc1ccc(Cl)cc1-c1ccnc2c(C(=O)O)csc12 [compound 539]
- pIC50 [1]: > 7.30
- pIC50 [2]: 7.33

Structure (SMILES): Cc1nc2cc(OC(F)F)c(C(F)(F)F)c(C#N)c2c(=O)n1CCOc1ccc(Cl)cc1-c1ccnc2c(C(=O)O)csc12 [compound 540]
- pIC50 [1]: > 7.30
- pIC50 [2]: 7.85

Structure (SMILES): Cc1nc2cc(OC(F)F)c(OC(F)F)c(C#N)c2c(=O)n1CCOc1ccc(Cl)cc1-c1ccnc2c(C(=O)O)csc12 [compound 541]
- pIC50 [1]: > 7.30
- pIC50 [2]: 7.31

Structure (SMILES): Cc1nc2cc(OC(F)(F)F)c(Cl)c(C#N)c2c(=O)n1CCOc1ccc(Cl)cc1-c1ccnc2c(C(=O)O)csc12 [compound 542]
- pIC50 [1]: > 7.30
- pIC50 [2]: 7.69

Structure (SMILES): Cc1nc2cc(OC(F)(F)F)c(C#N)c(C#N)c2c(=O)n1CCOc1ccc(Cl)cc1-c1ccnc2c(C(=O)O)csc12 [compound 543]
- pIC50 [1]: > 7.30
- pIC50 [2]: 7.42

Structure (SMILES): Cc1nc2cc(F)c(OC(F)F)c(C#N)c2c(=O)n1CCOc1ccc(Cl)cc1-c1ccnc2c(C(=O)O)csc12 [compound 545]
- pIC50 [1]: > 7.30
- pIC50 [2]: 8.11

Structure (SMILES): Cc1nc2cc(Cl)c(OC(F)F)c(C#N)c2c(=O)n1CCOc1ccc(Cl)cc1-c1ccnc2c(C(=O)O)csc12 [compound 546]
- pIC50 [1]: > 7.30
- pIC50 [2]: 7.36

Structure (SMILES): Cc1nc2cc(C#N)c(OC(F)F)c(C#N)c2c(=O)n1CCOc1ccc(Cl)cc1-c1ccnc2c(C(=O)O)csc12 [compound 547]
- pIC50 [1]: 6.00 to 7.30
- pIC50 [2]: 6.87

Structure (SMILES): Cc1nc2cc(C(F)F)c(OC(F)F)c(C#N)c2c(=O)n1CCOc1ccc(Cl)cc1-c1ccnc2c(C(=O)O)csc12 [compound 548]
- pIC50 [1]: > 7.30
- pIC50 [2]: 7.33

Structure (SMILES): Cc1nc2cc(C(F)(F)F)c(OC(F)F)c(C#N)c2c(=O)n1CCOc1ccc(Cl)cc1-c1ccnc2c(C(=O)O)csc12 [compound 549]
- pIC50 [1]: > 7.30
- pIC50 [2]: 7.71

Structure (SMILES): Cc1nc2cc(Cl)c(OC(F)(F)F)c(C#N)c2c(=O)n1CCOc1ccc(Cl)cc1-c1ccnc2c(C(=O)O)csc12 [compound 550]
- pIC50 [1]: 6.00 to 7.30
- pIC50 [2]: 7.06

Structure (SMILES): Cc1nc2cc(C(F)F)c(OC(F)(F)F)c(C#N)c2c(=O)n1CCOc1ccc(Cl)cc1-c1ccnc2c(C(=O)O)csc12 [compound 551]
- pIC50 [1]: > 7.30
- pIC50 [2]: 7.53

Structure (SMILES): Cc1nc2cc(CN(C)C)c(OC(F)(F)F)c(C#N)c2c(=O)n1CCOc1ccc(Cl)cc1-c1ccnc2c(C(=O)O)csc12 [compound 552]
- pIC50 [1]: 6.00 to 7.30
- pIC50 [2]: 7.29

Structure (SMILES): Cc1nc2cc(C(F)(F)F)c(CN(C)C)c(C#N)c2c(=O)n1CC#Cc1ccc(Cl)cc1-c1ccnc2c(C(=O)O)csc12 [compound 553]
- pIC50 [1]: > 7.30
- pIC50 [2]: 7.87

Structure (SMILES): Cc1nc2cc(C(F)(F)F)c(Cl)c(C#N)c2c(=O)n1CC#Cc1ccc(Cl)cc1-c1ccnc2c(C(=O)O)csc12 [compound 554]
- pIC50 [1]: > 7.30
- pIC50 [2]: 7.50

Structure (SMILES): Cc1sc2c(-c3cc(Cl)ccc3OCCn3c(C)nc4cc(C(F)(F)F)c(Cl)c(C#N)c4c3=O)ccnc2c1C(=O)O [compound 555]
- pIC50 [1]: > 7.30
- pIC50 [2]: 7.97

Structure (SMILES): Cc1sc2c(-c3cc(Cl)ccc3OCCn3c(C)nc4cc(C(F)(F)F)c(CN(C)C)c(C#N)c4c3=O)ccnc2c1C(=O)O [compound 556]
- pIC50 [1]: > 7.30
- pIC50 [2]: 7.64

Structure (SMILES): Cc1nc2c(F)cc(C(F)F)c(C#N)c2c(=O)n1CC#Cc1ccc(Cl)cc1-c1ccnc2c(C(=O)O)csc12 [compound 557]
- pIC50 [1]: > 7.30
- pIC50 [2]: 8.19

Structure (SMILES): Cc1cc(-c2cc(Cl)ccc2OCCn2c(C)nc3cc(C(F)(F)F)c(Cl)c(C#N)c3c2=O)c2scc(C(=O)O)c2n1 [compound 558]
- pIC50 [1]: > 7.30
- pIC50 [2]: 7.57

Structure (SMILES): Cc1cc(-c2cc(Cl)ccc2OCCn2c(C)nc3cc(C(F)(F)F)c(CN(C)C)c(C#N)c3c2=O)c2scc(C(=O)O)c2n1 [compound 559]
- pIC50 [1]: > 7.30
- pIC50 [2]: 8.06

Structure (SMILES): Cc1cc(-c2cc(Cl)ccc2C#CCn2c(C)nc3cc(C(F)(F)F)cc(C#N)c3c2=O)c2scc(C(=O)O)c2n1 [compound 560]
- pIC50 [1]: > 7.30
- pIC50 [2]: 8.32

Structure (SMILES): Cc1cc(-c2cc(Cl)ccc2C#CCn2c(C)nc3cc(C(F)(F)F)c(Cl)c(C#N)c3c2=O)c2scc(C(=O)O)c2n1 [compound 561]
- pIC50 [1]: 6.00 to 7.30
- pIC50 [2]: 7.25

Structure (SMILES): Cc1cc(-c2cc(Cl)ccc2C#CCn2c(C)nc3cc(C(F)(F)F)c(CN(C)C)c(C#N)c3c2=O)c2scc(C(=O)O)c2n1 [compound 562]
- pIC50 [1]: > 7.30
- pIC50 [2]: 8.06

Structure (SMILES): Cc1nc2cc(C(F)(F)F)cc(C#N)c2c(=O)n1CCOc1ccc(Cl)cc1-c1cc(C(F)F)nc2c(C(=O)O)csc12 [compound 563]
- pIC50 [1]: > 7.30
- pIC50 [2]: 7.84

Structure (SMILES): Cc1ccc(-c2cc(Cl)ccc2OCCn2c(C)nc3cc(C(F)(F)F)c(CN(C)C)c(C#N)c3c2=O)c2scc(C(=O)O)c12 [compound 564]
- pIC50 [1]: > 7.30
- pIC50 [2]: 7.39

Structure (SMILES): Cc1cc(-c2cc(Cl)ccc2OCCn2c(C)nc3cc(C(F)(F)F)cc(C#N)c3c2=O)c2scc(C(=O)NS(C)(=O)=O)c2n1 [compound 565]
- pIC50 [1]: > 7.30
- pIC50 [2]: 7.53

Structure (SMILES): Cc1cc(-c2cc(Cl)ccc2OCCn2c(C)nc3c(F)cc(C(F)F)c(C#N)c3c2=O)c2scc(C(=O)NS(C)(=O)=O)c2n1 [compound 566]
- pIC50 [1]: > 7.30
- pIC50 [2]: 7.79

Structure (SMILES): Cc1cc(-c2cc(Cl)ccc2OCCn2c(C)nc3cc(F)c(F)c(C#N)c3c2=O)c2scc(C(=O)NS(C)(=O)=O)c2n1 [compound 567]
- pIC50 [1]: > 7.30
- pIC50 [2]: 7.93

Structure (SMILES): Cc1cc(-c2cc(Cl)ccc2OCCn2c(C)nc3cc(C(F)(F)F)c(CN(C)C)c(C#N)c3c2=O)c2scc(C(=O)NS(C)(=O)=O)c2n1 [compound 568]
- pIC50 [1]: > 7.30
- pIC50 [2]: 7.85

Structure (SMILES): Cc1nc2cc(C(F)(F)F)cc(C#N)c2c(=O)n1CCOc1ccc(Cl)cc1-c1ccnc2c(C(=O)NS(C)(=O)=O)csc12 [compound 569]
- pIC50 [1]: > 7.30
- pIC50 [2]: 8.70

Structure (SMILES): CC(=O)NS(=O)(=O)c1csc2c(-c3cc(Cl)ccc3OCCn3c(C)nc4c(F)cc(C(F)F)c(C#N)c4c3=O)cc(C)nc12 [compound 570]
- pIC50 [1]: > 7.30
- pIC50 [2]: 8.25

Structure (SMILES): Cc1cc(-c2cc(Cl)c(F)cc2OCCn2c(C)nc3cc(C(F)(F)F)cc(C#N)c3c2=O)c2scc(C(=O)O)c2n1 [compound 571]
- pIC50 [1]: 6.00 to 7.30
- pIC50 [2]: 7.26

Structure (SMILES): Cc1ccc2nc(C)n(CCOc3ccc(Cl)cc3-c3ccnc4c(C(=O)O)csc34)c(=O)c2c1C#N [compound 572]
- pIC50 [1]: > 7.30
- pIC50 [2]: 7.51

Structure (SMILES): Cc1cc(C#N)c2c(=O)n(CCOc3ccc(Cl)cc3-c3ccnc4c(C(=O)O)csc34)c(C)nc2c1 [compound 573]
- pIC50 [1]: 6.00 to 7.30
- pIC50 [2]: 7.26

Structure (SMILES): Cc1ccc(C#N)c2c(=O)n(CCOc3ccc(Cl)cc3-c3ccnc4c(C(=O)O)csc34)c(C)nc12 [compound 574]
- pIC50 [1]: 6.00 to 7.30
- pIC50 [2]: 7.24

Structure (SMILES): Cc1nc2ccc(CCN(C)C)c(C#N)c2c(=O)n1CCOc1ccc(Cl)cc1-c1cc(OC(F)F)nc2c(C(=O)O)csc12 [compound 575]
- pIC50 [1]: > 7.30
- pIC50 [2]: 7.59

Structure (SMILES): Cc1ccc(-c2cc(Cl)ccc2OCCn2c(C)nc3ccc(CCN(C)C)c(C#N)c3c2=O)c2scc(C(=O)O)c12 [compound 576]
- pIC50 [1]: > 7.30
- pIC50 [2]: 7.75

Reference: patent US11286268B1, “EIF4E-inhibiting compounds and methods” (EFFECTOR THERAPEUTICS, INC., priority 2019, dated 2022)
